The values that follow come from article PMC7435778, “Bidirectional Modulation of the Voltage-Gated Sodium (Nav1.6) Channel by Rationally Designed Peptidomimetics” (Molecules, 2020).

Where two headings read alike, the source gives them in different places. Starred links: 1 amine or outer side, 2 acyl side, 3 side chain; linkers in the order of their positions; H or OH if unused. Non-standard residues stand in square brackets, D forms with d. Residues, ends and D or L forms follow the SMILES beside them. *: point of attachment. Tyr(OtBu) = CC(C)(C)Oc1ccc(C[C@H](N[*:1])C(=O)[*:2])cc1; Glu(OtBu) = CC(C)(C)OC(=O)CC[C@H](N[*:1])C(=O)[*:2]; Fmoc = O=C(OCC1c2ccccc2-c2ccccc21)*; Decanoyl = CCCCCCCCCC(=O)*; Cbz = O=C(OCc1ccccc1)*; Boc = CC(C)(C)OC(=O)*; Bz = O=C(c1ccccc1)*; OtBu = CC(C)(C)O*; tBu = CC(C)(C)*

In data set [1] the test system is HEK293 cells (Clone V cells). Conditions: positive control with known toxicity; cited from earlier work.
Data set [2] concerns the target T1, Nav1.6 channel (Homo sapiens, UniProt Q9UQD0).
T1 construct: expressed in transfected cells
In words: Whole-cell patch-clamp electrophysiology in HEK-Nav1.6 cells. The data set is classed as cell-based. Conditions: 20 µM; for Tau of Fast Inactivation: at −10 mV, DMSO 1.17 ± 0.09; for Long Term Inactivation, depolarization cycle 4 (INa/INa,Cycle 1) / Long Term Inactivation, depolarization cycle 3 (INa/INa,Cycle 1) / Long Term Inactivation, depolarization cycle 2 (INa/INa,Cycle 1): fraction of channels available; for Long Term Inactivation, depolarization cycle 4 (INa/INa,Cycle 1): DMSO 0.85 ± 0.04; for Long Term Inactivation, depolarization cycle 3 (INa/INa,Cycle 1): DMSO 0.86 ± 0.03; for Long Term Inactivation, depolarization cycle 2 (INa/INa,Cycle 1): DMSO 0.89 ± 0.03; for V1/2 of Steady-state Inactivation: DMSO –58.58 ± 1.90. As to the method:
As such, in an effort to further investigate their seemingly inverse activities, 12 and 19 were selected for functional evaluation as modulators of Nav1.6. To do so, HEK293 cells stably expressing Nav1.6 (HEK-Nav1.6) were incubated for 30 min with 0.1% DMSO (control), 20 µM 12, or 20 µM 19. After incubation, the modulatory effects of these peptidomimetics on Nav1.6-mediated currents were assessed using whole-cell patch-clamp electrophysiology (Figure 5 and Table 4).
HEK293 cells were maintained in Dulbecco’s Modified Eagle Medium (DMEM) and F-12 (Invitrogen, Carlsbad, CA, USA), supplemented with 0.05% glucose, 0.5 mM pyruvate, 10% fetal bovine serum, 100 units/mL penicillin, and 100 µg/mL streptomycin (Invitrogen), and incubated at 37 °C with 5% CO2. The double stable HEK293 cell line expressing CD4-Nav1.6C-tail-NLuc and CLuc-FGF14 used for LCA experiments was described in a previous study and was maintained using selective antibiotics (0.5 mg/mL G418 and 5 µg/mL puromycin). HEK293 cells stably expressing the human Nav1.6 channel (hereafter referred to as HEK-Nav1.6 cells) were maintained similarly, except for the addition of 500 μg/mL G418 (Invitrogen) to maintain stable Nav1.6 expression. Cells were transfected at 80–90% confluence with equal amount (1 μg each) of plasmid pairs using Lipofectamine 3000 (Invitrogen, Waltham, MA, USA) according to the manufacturer’s instructions. HEK-Nav1.6 cells were washed and re-plated at very low density prior to electrophysiological recordings.
HEK293 cells stably expressing Nav1.6 (HEK-Nav1.6) were grown in culture as described above. Prior to experimentation, HEK-Nav1.6 cells were dissociated using Gibco TrypLE (Thermo Fisher Scientific, Walthman, MA, USA) and plated at low density onto glass coverslips situated at the base of wells in CELLSTAR® 24-Well Multi-Well Plates (Greiner Bio-One, Monroe, NC, USA). Cells were then incubated on glass cover slips for 2–3 h. After incubation, glass cover slips were transferred to the recording chamber containing 3 mL of extracellular solution comprised of the following salts (mM): 140 NaCl, 3 KCl, 1 MgCl2, 1 CaCl2, 10 HEPES, 10 glucose, pH 7.3. After incubating for thirty minutes in the extracellular solution containing either DMSO or experimental compound, recordings were then performed at room temperature (20–22 °C) using a MultiClamp 700B amplifier (Molecular Devices, Sunnyvale, CA) and borosilicate glass pipettes (resistance of 3–6 MΩ) containing intracellular solution comprised of the following salts (mM): 130 CH3O3SCs, 1 ethylene glycol tetraacetic acid (EGTA), 10 NaCl, 10 HEPES, pH 7.3. Dial settings on the amplifier were used to estimate membrane capacitance and series resistance and compensated for electronically by 70–80%. Prior to digitization and storage, data were acquired at 20 kHz and filtered at 5 kHz. Clampex 9.2 software (Molecular Devices), interfaced to the electrophysiological equipment using a Digidata 1200 analog-digital interface (Molecular Devices), was used to control all experimental parameters. To assess the relationship of INa and voltage, HEK-Nav1.6 cells were evoked by depolarizations to test potentials ranging from –100 to +60 mV from a holding potential of −70 mV, followed by a voltage pre-step pulse of −120 mV. To assess steady-state inactivation of Nav channels, HEK-Nav1.6 cells were evoked using a paired-pulse protocol in which cells were stepped, from the holding potential, to varying test potentials ranging from −120 to +20 mV (pre-pulse) prior to a test pulse to −20 mV.
(In general: Patch clamp records ionic current or voltage across a cell membrane.)

The target of a further data set is T2, FGF14 (Homo sapiens, UniProt Q92915).
T2 sequence (Q92915 64-252 isoform Q92915-2): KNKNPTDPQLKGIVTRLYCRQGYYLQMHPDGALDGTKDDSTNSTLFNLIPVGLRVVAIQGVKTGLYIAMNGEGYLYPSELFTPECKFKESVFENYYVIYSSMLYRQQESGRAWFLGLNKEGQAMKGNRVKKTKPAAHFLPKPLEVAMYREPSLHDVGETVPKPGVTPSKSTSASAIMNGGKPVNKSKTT
In words: Surface plasmon resonance binding to FGF14. Conditions: for koff: read-out: koff FGF14; for kon: read-out: kon FGF14.

The target in data set [3] is T1, Nav1.6 channel. On the set-up: method as in PMID 30587448. Conditions: previously reported, cited from earlier work.
A further data set concerns MSNs of the NAc. Further details: method as in PMID 29359916. Conditions: previously reported; cited from earlier work.
In data set [4] the target is T3, fibroblast growth factor 14 (FGF14), aa 64–252 (UniProt Q92915).
T3 sequence: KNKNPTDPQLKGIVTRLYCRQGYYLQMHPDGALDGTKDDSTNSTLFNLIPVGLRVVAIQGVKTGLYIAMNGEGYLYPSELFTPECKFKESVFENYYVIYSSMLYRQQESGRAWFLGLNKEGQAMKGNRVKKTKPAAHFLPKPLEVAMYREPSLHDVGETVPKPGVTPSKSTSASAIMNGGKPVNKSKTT
In words: SPR; Biacore T100; FGF14 (17,896 RU) or Nav1.6 C-tail (6,800 RU) amine-coupled to CM5 chips; compounds 0.195–200 µM flowed at 60 µL/min, 25 °C, PBS with 0.005% Tween-20 and 2% DMSO; KD is the average of the 1:1 Langmuir kinetic fit and the steady-state fit. For orientation: In SPR one partner is held on a chip, and binding of the other changes the refractive index at the surface.

The target of data set [5] is T3, fibroblast growth factor 14 (FGF14), aa 64–252. Described as above. This is another data set of the same source.

T1 sequence (Q9UQD0 whole entry): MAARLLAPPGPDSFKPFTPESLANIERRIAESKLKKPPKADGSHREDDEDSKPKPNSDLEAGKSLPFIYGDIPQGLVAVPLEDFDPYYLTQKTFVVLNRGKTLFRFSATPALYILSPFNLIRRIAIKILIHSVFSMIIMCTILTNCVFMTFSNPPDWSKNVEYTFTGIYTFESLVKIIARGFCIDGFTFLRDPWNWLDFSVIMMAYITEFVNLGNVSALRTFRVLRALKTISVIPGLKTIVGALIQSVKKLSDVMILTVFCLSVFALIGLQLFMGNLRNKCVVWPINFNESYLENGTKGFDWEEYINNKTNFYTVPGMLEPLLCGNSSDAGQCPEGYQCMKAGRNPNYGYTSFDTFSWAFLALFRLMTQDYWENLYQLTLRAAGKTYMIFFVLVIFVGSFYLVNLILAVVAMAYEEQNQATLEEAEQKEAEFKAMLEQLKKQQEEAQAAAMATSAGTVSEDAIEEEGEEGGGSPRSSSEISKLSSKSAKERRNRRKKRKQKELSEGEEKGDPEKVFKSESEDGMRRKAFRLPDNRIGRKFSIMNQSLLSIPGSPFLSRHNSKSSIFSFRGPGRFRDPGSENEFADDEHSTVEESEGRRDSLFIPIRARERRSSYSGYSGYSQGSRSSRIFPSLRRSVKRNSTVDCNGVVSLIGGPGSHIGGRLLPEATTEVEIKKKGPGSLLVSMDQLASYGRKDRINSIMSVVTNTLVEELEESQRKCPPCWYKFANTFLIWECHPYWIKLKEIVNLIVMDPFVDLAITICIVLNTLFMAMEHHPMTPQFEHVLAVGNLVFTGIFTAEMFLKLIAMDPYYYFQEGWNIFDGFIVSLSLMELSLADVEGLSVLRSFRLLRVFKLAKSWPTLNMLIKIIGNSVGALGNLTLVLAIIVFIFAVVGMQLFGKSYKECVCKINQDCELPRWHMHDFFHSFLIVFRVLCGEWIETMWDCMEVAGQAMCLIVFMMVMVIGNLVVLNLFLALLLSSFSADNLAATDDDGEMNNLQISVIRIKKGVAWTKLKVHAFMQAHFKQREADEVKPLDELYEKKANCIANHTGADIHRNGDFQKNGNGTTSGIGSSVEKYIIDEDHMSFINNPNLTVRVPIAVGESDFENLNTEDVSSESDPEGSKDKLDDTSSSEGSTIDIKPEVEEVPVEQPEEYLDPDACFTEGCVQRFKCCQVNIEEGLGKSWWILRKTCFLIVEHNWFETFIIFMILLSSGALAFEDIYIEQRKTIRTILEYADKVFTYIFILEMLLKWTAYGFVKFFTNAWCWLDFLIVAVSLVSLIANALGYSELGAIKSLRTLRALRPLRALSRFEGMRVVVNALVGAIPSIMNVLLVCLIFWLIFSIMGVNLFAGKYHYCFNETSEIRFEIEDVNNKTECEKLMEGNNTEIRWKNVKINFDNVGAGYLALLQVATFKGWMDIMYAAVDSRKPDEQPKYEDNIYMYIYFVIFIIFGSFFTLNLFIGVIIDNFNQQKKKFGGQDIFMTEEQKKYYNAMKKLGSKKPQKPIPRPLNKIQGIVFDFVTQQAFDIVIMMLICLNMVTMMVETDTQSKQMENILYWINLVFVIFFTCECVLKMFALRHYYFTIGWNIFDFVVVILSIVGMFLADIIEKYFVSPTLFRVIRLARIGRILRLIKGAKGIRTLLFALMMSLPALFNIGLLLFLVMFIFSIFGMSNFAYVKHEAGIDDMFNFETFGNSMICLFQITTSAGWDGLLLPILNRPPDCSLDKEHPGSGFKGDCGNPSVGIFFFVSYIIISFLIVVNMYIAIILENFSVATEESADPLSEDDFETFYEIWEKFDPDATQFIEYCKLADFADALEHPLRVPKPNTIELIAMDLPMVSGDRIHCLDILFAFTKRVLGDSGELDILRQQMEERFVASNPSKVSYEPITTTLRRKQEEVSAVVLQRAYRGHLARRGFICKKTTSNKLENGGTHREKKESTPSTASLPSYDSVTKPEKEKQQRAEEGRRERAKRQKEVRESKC

Regarding `CC/C(=C(\c1ccccc1)c1ccc(OCCN(C)C)cc1)c1ccccc1` [Tamoxifen], the “Toxicity toward HEK293 cells” value in data set [1] is recorded as “toxic”.

In the case of `CC(C)[C@H](NC(=O)[C@H](Cc1ccc(OC(C)(C)C)cc1)NC(=O)[C@H](Cc1ccc(OC(C)(C)C)cc1)NC(=O)[C@H](CCC(=O)OC(C)(C)C)NC(=O)c1ccccc1)C(N)=O` [Compound 19, tert-butyl (S)-5-(((S)-1-(((S)-1-(((S)-1-amino-3-methyl-1-oxobutan-2-yl)amino)-3-(4-(tert-butoxy)phenyl)-1-oxopropan-2-yl)amino)-3-(4-(tert-butoxy)phenyl)-1-oxopropan-2-yl)amino)-4-benzamido-5-oxopentanoate] (Bz-E(OtBu)Y(tBu)Y(tBu)V-NH2), at Nav1.6 channel [2] (mean ± SEM), the “Tau of Fast Inactivation” value is 1.12 ± 0.07 (7) ms and the “V1/2 of Steady-state Inactivation” value is recorded as “–58.53 ± 1.69 (8) mV”. Besides, at Nav1.6 channel [2], the “Long Term Inactivation, depolarization cycle 4 (INa/INa,Cycle 1)” value is 0.73 ± 0.03 (8); the “Long Term Inactivation, depolarization cycle 3 (INa/INa,Cycle 1)” value is recorded as 0.73 ± 0.02; the “Long Term Inactivation, depolarization cycle 2 (INa/INa,Cycle 1)” value was 0.83 ± 0.02. In addition, the “Fold increase in binding to FGF14” value at FGF14 (19 relative to 17 (Ac to benzoyl)) is recorded as “approximately 2 fold”. Also, at FGF14, the dissociation rate constant (koff) – broadly, the first-order rate constant of dissociation – was found to be 0.013 s⁻¹ and the kon (commonly the rate constant with which the complex forms) is 2060 M⁻¹ s⁻¹.

In the case of `CC(C)C[C@H](NC(=O)[C@H](Cc1ccccc1)NC(=O)OCc1ccccc1)C(=O)N1CCC[C@H]1C(=O)N[C@@H](CCCCNC(=O)OC(C)(C)C)C(N)=O` [ZL0177] (Cbz-FLPK(Boc)-NH2), at Nav1.6 channel [3], the “Nav1.6-mediated peak current density” value was “–26.65 ± 6.3 pA/pF”. The “Voltage-dependence of Nav1.6 channel activation” value on Nav1.6 channel [3] (whole-cell patch-clamp) is given as “depolarizing shift in voltage-dependence of Nav1.6 channel activation”.

In the case of `CCCCCCCCCC(=O)N[C@@H](CCC(=O)OC(C)(C)C)C(=O)N[C@@H](Cc1ccc(OC(C)(C)C)cc1)C(=O)N[C@@H](Cc1ccc(OC(C)(C)C)cc1)C(=O)N[C@H](C(N)=O)C(C)C` [Compound 22, tert-Butyl (S)-5-(((S)-1-(((S)-1-(((S)-1-amino-3-methyl-1-oxobutan-2-yl)amino)-3-(4-(tert-butoxy)phenyl)-1-oxopropan-2-yl)amino)-3-(4-(tert-butoxy)phenyl)-1-oxopropan-2-yl)amino)-4-decanamido-5-oxopentanoate] (Decanoyl-E(OtBu)Y(tBu)Y(tBu)V-NH2), on FGF14, the koff came to 0.109 s⁻¹ and the kon was 690 M⁻¹ s⁻¹.

Turning to `COC(=O)[C@H](CCCCNC(=O)OCC1c2ccccc2-c2ccccc21)NC(=O)[C@@H]1CCCN1C(=O)[C@H](CC(C)C)NC(=O)[C@H](Cc1ccccc1)NC(C)=O` [ZL181] (Ac-FLPK(Fmoc)-OMe), the “Firing frequencies in MSNs of the NAc” value with MSNs of the NAc is “decreased maximal and instantaneous firing frequencies”.

Take `CC(=O)N[C@@H](CCC(=O)OC(C)(C)C)C(=O)N[C@@H](Cc1ccc(OC(C)(C)C)cc1)C(=O)N[C@@H](Cc1ccc(OC(C)(C)C)cc1)C(=O)N[C@H](C(N)=O)C(C)C` [Compound 17, tert-butyl (S)-4-acetamido-5-(((S)-1-(((S)-1-(((S)-1-amino-3-methyl-1-oxobutan-2-yl)amino)-3-(4-(tert-butoxy)phenyl)-1-oxopropan-2-yl)amino)-3-(4-(tert-butoxy)phenyl)-1-oxopropan-2-yl)amino)-5-oxopentanoate] (Ac-E(OtBu)Y(tBu)Y(tBu)V-NH2): at FGF14, the koff is 0.088 s⁻¹ and the kon is 6030 M⁻¹ s⁻¹.

As to `CC(C)[C@H](NC(=O)[C@H](Cc1ccc(OC(C)(C)C)cc1)NC(=O)[C@H](Cc1ccc(OC(C)(C)C)cc1)NC(=O)OCC1c2ccccc2-c2ccccc21)C(N)=O` [Compound 12, (9H-fluoren-9-yl)methyl ((S)-1-(((S)-1-(((S)-1-amino-3-methyl-1-oxobutan-2-yl)amino)-3-(4-(tert-butoxy)phenyl)-1-oxopropan-2-yl)amino)-3-(4-(tert-butoxy)phenyl)-1-oxopropan-2-yl)carbamate] (Fmoc-Tyr(tBu)-Tyr(tBu)-Val-NH2), on Nav1.6 channel [2] (mean ± SEM), the “Tau of Fast Inactivation” value is on record as 1.30 ± 0.11 (7) ms and the “V1/2 of Steady-state Inactivation” value was “–57.59 ± 0.56 (6) mV”. In addition, at Nav1.6 channel [2], the “Long Term Inactivation, depolarization cycle 4 (INa/INa,Cycle 1)” value was 0.70 ± 0.04 (7); the “Long Term Inactivation, depolarization cycle 3 (INa/INa,Cycle 1)” value stood at 0.76 ± 0.03; the “Long Term Inactivation, depolarization cycle 2 (INa/INa,Cycle 1)” value worked out at 0.88 ± 0.03. In addition, the “V1/2 of Activation” value on Nav1.6 channel [2] (mean ± SEM, DMSO –20.04 ± 0.85) is “–20.40 ± 0.89 (10) mV”. In addition, at FGF14, the koff stood at 0.0186 s⁻¹ and the kon was 6440 M⁻¹ s⁻¹.

B1: compound 22 (PW0207) (peptide)
peptide: Decanoyl-[Glu(OtBu)][Tyr(OtBu)][Tyr(OtBu)]V-NH2
SMILES: CCCCCCCCCC(=O)N[C@@H](CCC(=O)OC(C)(C)C)C(=O)N[C@@H](Cc1ccc(OC(C)(C)C)cc1)C(=O)N[C@@H](Cc1ccc(OC(C)(C)C)cc1)C(=O)N[C@H](C(N)=O)C(C)C
On to B1, for which, in data set [4], the Kd (in general, the free concentration of one partner at which half of the binding sites on the other are occupied at equilibrium, for simple one-to-one binding) was over 100 µM; the koff was 0.109 s⁻¹; the kon was 690 M⁻¹ s⁻¹.

B2: compound 19 (PW0204) (peptide)
peptide: Bz-[Glu(OtBu)][Tyr(OtBu)][Tyr(OtBu)]V-NH2
SMILES: CC(C)[C@H](NC(=O)[C@H](Cc1ccc(OC(C)(C)C)cc1)NC(=O)[C@H](Cc1ccc(OC(C)(C)C)cc1)NC(=O)[C@H](CCC(=O)OC(C)(C)C)NC(=O)c1ccccc1)C(N)=O
On to B2, for which, in data set [4], the Kd is 6.49 µM, the koff was found to be 0.013 s⁻¹ and the kon was determined as 2060 M⁻¹ s⁻¹. The dissociation constant (Kd) in data set [5] was found to be 6.3 µM.

B3: compound 17 (PW0203) (peptide)
peptide: Ac-[Glu(OtBu)][Tyr(OtBu)][Tyr(OtBu)]V-NH2
SMILES: CC(=O)N[C@@H](CCC(=O)OC(C)(C)C)C(=O)N[C@@H](Cc1ccc(OC(C)(C)C)cc1)C(=O)N[C@@H](Cc1ccc(OC(C)(C)C)cc1)C(=O)N[C@H](C(N)=O)C(C)C
In data set [4], B3 registered a dissociation constant (Kd) of 14.3 µM, a koff of 0.088 s⁻¹ and a kon of 6030 M⁻¹ s⁻¹.
